Assay results from patent publication US20070167492A1, “Molluscicidal agents” (priority 2003, published 2007).

What was measured:
[1] = Example 1: pot test, treated winter wheat seed with 5 adult slugs per pot, 14 days; assay type: in vivo, Deroceras reticulatum; conditions: Example 1; winter wheat seed treatment
In short: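 Fludioxonil-disinfected winter wheat seed (Kampa, 40 per pot) sown on quartz sand over potting soil with 5 adult slugs per pot; ±15° C., ±90% RH, 12 h light/12 h dark, 4 replicates. Damaged seeds, plants, dead slugs and fecal pellets counted up to day 14; F-tests and Student-tests.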

[2] = test system: Deroceras reticulatum (grey field slug); test: Example 2: pot re-test, treated winter wheat seed with 5 adult slugs per pot, 7 days; assay type: in vivo; conditions: for number of damaged seeds relative to the untreated seed: two days after the start; for number of fecal pellets per pot relative to the untreated control / plants present relative to the untreated seed: after 2, 3 and 7 days
In short: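 Pots sown with 40 treated winter wheat seeds on quartz sand over potting soil, each given 5 adult grey field slugs, kept at 18-19° C, ~95% RH, ~18 h light, no overhead irrigation; 4 replicates. Damaged seeds, intact plants, dead slugs and fecal pellets counted at 2, 3, 7 days; F-tests and Student tests.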

[3] = Example 2, 2 ml formulated per kg seed, 2 days after sowing
[4] = Example 2, 2 ml formulated per kg seed, 3 days after sowing
[5] = Example 2, 2 ml formulated per kg seed, 7 days after sowing
[6] = Example 2, 4 ml formulated per kg seed, 2 days after sowing
[7] = Example 2, 4 ml formulated per kg seed, 3 days after sowing
[8] = Example 2, 4 ml formulated per kg seed, 7 days after sowing
[9] = Example 2, 10 ml formulated per kg seed, 2 days after sowing
[10] = Example 2, 10 ml formulated per kg seed, 3 days after sowing
[11] = Example 2, 10 ml formulated per kg seed, 7 days after sowing
[12] = Example 2, 3.8 ml formulated per kg seed, 2 days after sowing
[13] = Example 2, 3.8 ml formulated per kg seed, 3 days after sowing
[14] = Example 2, 3.8 ml formulated per kg seed, 7 days after sowing
[15] = Example 2, 8 ml formulated per kg seed, 2 days after sowing
[16] = Example 2, 8 ml formulated per kg seed, 3 days after sowing
[17] = Example 2, 8 ml formulated per kg seed, 7 days after sowing
[18] = Example 2, 12 ml formulated per kg seed, 2 days after sowing
[19] = Example 2, 12 ml formulated per kg seed, 3 days after sowing
[20] = Example 2, 12 ml formulated per kg seed, 7 days after sowing

## O=CC=Cc1ccccc1 [cinnamaldehyde]
[1]
  phytotoxicity: phytotoxic
[2]; Example 2
  fecal pellets in comparison to the control: equal number of fecal pellets
  number of plants present relative to untreated: no significantly different results
  phytotoxic effect on the seeds: phytotoxic effect on the seeds
  reduction of damaged seeds relative to the untreated control: more than 50%
  result of seed treatment against slugs (conclusion): does not result in the desired effect
  number of damaged seeds relative to the untreated seed: significant reduction in the number of damaged seeds
[2]; Example 2, 2 ml formulated per kg seed
  percentage of damaged seeds after 7 days: 63%
[2]; [3]
  Mean number of damaged seeds per pot: 8.8
  Mean number of dead slugs per pot: 0
[2]; [4]
  Mean number of damaged seeds per pot: 15.0
  Mean number of dead slugs per pot: 0
[2]; [5]
  Mean number of damaged seeds per pot: 25.0
  Mean number of dead slugs per pot: 0.5
[2]; Example 2, 4 ml formulated per kg seed
  percentage of damaged seeds after 7 days: 36%
[2]; [6]
  Mean number of damaged seeds per pot: 5.0
  Mean number of dead slugs per pot: 0
[2]; [7]
  Mean number of damaged seeds per pot: 8.8
  Mean number of dead slugs per pot: 0
[2]; [8]
  Mean number of damaged seeds per pot: 14.3
  Mean number of dead slugs per pot: 0.8
[2]; Example 2, 10 ml formulated per kg seed
  percentage of damaged seeds after 7 days: 39%
[2]; [9]
  Mean number of damaged seeds per pot: 6.0
  Mean number of dead slugs per pot: 0
[2]; [10]
  Mean number of damaged seeds per pot: 10.5
  Mean number of dead slugs per pot: 0
[2]; [11]
  Mean number of damaged seeds per pot: 15.8
  Mean number of dead slugs per pot: 0.5
[2]; dosage 2 ml, 2 days
  Mean number of fecal pellets per pot: 45
  Mean number of plants present per pot: 0
[2]; dosage 2 ml, 3 days
  Mean number of fecal pellets per pot: 91
  Mean number of plants present per pot: 0
[2]; dosage 2 ml, 7 days
  Mean number of fecal pellets per pot: 124
  Mean number of plants present per pot: 0
  number of utilizable plants after 7 days: 0
[2]; dosage 4 ml, 2 days
  Mean number of fecal pellets per pot: 28
  Mean number of plants present per pot: 0
[2]; dosage 4 ml, 3 days
  Mean number of fecal pellets per pot: 58
  Mean number of plants present per pot: 0
[2]; dosage 4 ml, 7 days
  Mean number of fecal pellets per pot: 82
  Mean number of plants present per pot: 0
  number of utilizable plants after 7 days: 0
[2]; dosage 10 ml, 2 days
  Mean number of fecal pellets per pot: 42
  Mean number of plants present per pot: 0
[2]; dosage 10 ml, 3 days
  Mean number of fecal pellets per pot: 77
  Mean number of plants present per pot: 0
[2]; dosage 10 ml, 7 days
  Mean number of fecal pellets per pot: 91
  Mean number of plants present per pot: 0
  number of utilizable plants after 7 days: 0

## CC1OC(C)OC(C)OC(C)O1 (stereo not shown) [metaldehyde]
[2]; Example 2
  dead slugs observed during the course of the experiment: More dead slugs
  result of seed treatment against slugs (conclusion): good action against slugs
  number of fecal pellets per pot relative to the untreated control: significant reduction in the number of fecal pellets
  plants present relative to the untreated seed: significantly more plants present
  number of damaged seeds relative to the untreated seed: significant reduction in the number of damaged seeds
[2]; Example 2, 3.8 ml formulated per kg seed
  percentage of damaged seeds after 7 days: 1%
[2]; [12]
  Mean number of damaged seeds per pot: 0.5
  Mean number of dead slugs per pot: 0.5
[2]; [13]
  Mean number of damaged seeds per pot: 0.3
  Mean number of dead slugs per pot: 0.8
[2]; [14]
  Mean number of damaged seeds per pot: 0.3
  Mean number of dead slugs per pot: 3.0
[2]; dosage 3.8 ml, 2 days
  Mean number of fecal pellets per pot: 0
  Mean number of plants present per pot: 20.8
[2]; dosage 3.8 ml, 3 days
  Mean number of fecal pellets per pot: 0
  Mean number of plants present per pot: 32.5
[2]; dosage 3.8 ml, 7 days
  Mean number of fecal pellets per pot: 5
  Mean number of plants present per pot: 35.8
  number of utilizable plants after 7 days: 34.3

## O=[N+]([O-])NC1=NCCN1Cc1ccc(Cl)nc1 [imidacloprid]
[2]; Example 2
  result of seed treatment against slugs (conclusion): acceptable result
  number of fecal pellets per pot relative to the untreated control: significant reduction in the number of fecal pellets
  plants present relative to the untreated seed: significantly more plants present
  number of damaged seeds relative to the untreated seed: significant reduction in the number of damaged seeds
[2]; Example 2, 8 ml formulated per kg seed
  percentage of damaged seeds after 7 days: 23%
[2]; [15]
  Mean number of damaged seeds per pot: 4.8
  Mean number of dead slugs per pot: 0
[2]; [16]
  Mean number of damaged seeds per pot: 9.0
  Mean number of dead slugs per pot: 0
[2]; [17]
  Mean number of damaged seeds per pot: 9.0
  Mean number of dead slugs per pot: 1.0
[2]; Example 2, 12 ml formulated per kg seed
  percentage of damaged seeds after 7 days: 12%
[2]; [18]
  Mean number of damaged seeds per pot: 1.8
  Mean number of dead slugs per pot: 0
[2]; [19]
  Mean number of damaged seeds per pot: 3.8
  Mean number of dead slugs per pot: 0
[2]; [20]
  Mean number of damaged seeds per pot: 4.8
  Mean number of dead slugs per pot: 0.8
[2]; dosage 8 ml, 2 days
  Mean number of fecal pellets per pot: 6
  Mean number of plants present per pot: 7.8
[2]; dosage 8 ml, 3 days
  Mean number of fecal pellets per pot: 17
  Mean number of plants present per pot: 12.3
[2]; dosage 8 ml, 7 days
  Mean number of fecal pellets per pot: 29
  Mean number of plants present per pot: 18.3
  number of utilizable plants after 7 days: 13.5
[2]; dosage 12 ml, 2 days
  Mean number of fecal pellets per pot: 3
  Mean number of plants present per pot: 16.0
[2]; dosage 12 ml, 3 days
  Mean number of fecal pellets per pot: 17
  Mean number of plants present per pot: 24.5
[2]; dosage 12 ml, 7 days
  Mean number of fecal pellets per pot: 28
  Mean number of plants present per pot: 28.3
  number of utilizable plants after 7 days: 22.8
